Reference: ChEMBL document CHEMBL1156958, “Effect of essential oils, such as raspberry ketone and its derivatives, on antiandrogenic activity based on in vitro reporter gene assay” (Bioorg Med Chem Lett, 2010)

Experiments:
[1] = system: Rattus norvegicus; assay: Drug level in Wistar rat blood at 200 mg/kg; type: ADME, organism-based; design: dose 200 mg/kg; conditions: in vivo
[2] = biological target: T1, Androgen receptor (Homo sapiens, UniProt P10275); assay: Antagonist activity at AR in human MDA-kb2 cells co-transfected with MMTV-luc assessed as decrease in DHT-induced luciferase activity by reporter gene assay; type: functional, cell-based
T1 sequence (P10275 whole entry): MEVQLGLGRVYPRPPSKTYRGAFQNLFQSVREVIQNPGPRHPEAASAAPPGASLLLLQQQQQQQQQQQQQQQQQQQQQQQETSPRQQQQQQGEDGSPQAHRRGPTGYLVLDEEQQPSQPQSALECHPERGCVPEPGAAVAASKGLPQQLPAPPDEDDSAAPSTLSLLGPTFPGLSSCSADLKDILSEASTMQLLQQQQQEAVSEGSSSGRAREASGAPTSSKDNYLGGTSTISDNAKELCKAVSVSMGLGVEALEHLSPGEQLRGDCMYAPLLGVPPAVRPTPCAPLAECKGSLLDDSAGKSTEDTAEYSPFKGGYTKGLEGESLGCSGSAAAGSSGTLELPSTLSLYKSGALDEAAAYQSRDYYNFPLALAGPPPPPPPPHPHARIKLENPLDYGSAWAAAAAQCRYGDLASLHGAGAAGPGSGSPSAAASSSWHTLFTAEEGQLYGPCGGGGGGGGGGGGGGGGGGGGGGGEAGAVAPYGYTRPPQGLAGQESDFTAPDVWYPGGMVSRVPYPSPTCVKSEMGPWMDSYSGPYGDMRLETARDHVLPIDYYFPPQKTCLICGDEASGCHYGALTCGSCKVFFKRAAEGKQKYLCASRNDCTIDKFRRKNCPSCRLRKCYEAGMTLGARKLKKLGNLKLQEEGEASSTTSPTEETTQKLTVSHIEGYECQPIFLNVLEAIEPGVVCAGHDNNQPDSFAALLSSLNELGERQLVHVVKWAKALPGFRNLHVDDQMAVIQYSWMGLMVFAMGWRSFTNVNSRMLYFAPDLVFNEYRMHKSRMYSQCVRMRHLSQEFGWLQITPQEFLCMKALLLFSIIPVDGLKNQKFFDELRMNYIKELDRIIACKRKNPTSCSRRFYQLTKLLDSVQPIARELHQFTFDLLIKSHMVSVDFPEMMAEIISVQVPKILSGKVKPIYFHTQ

[3] = system: Rattus norvegicus; assay: Drug level in Wistar rat blood at 10 g/kg; type: ADME, organism-based; conditions: in vivo, 10000 mg/kg

| SMILES | Drug uptake [1] [ng/mL] | IC50 ([2]; read-out: IC50) [µM] | IC50 ([2]; read-out: pIC50 (converted)) [µM] | Drug uptake [3] [ng/mL] |
| --- | --- | --- | --- | --- |
| CC(C)(C)CC(C)(C)c1ccc(O)cc1 | 80 | – | – | – |
| CC(=O)Cc1ccc(O)cc1 | – | 420 | 417 | – |
| CC(=O)CCc1ccc(O)cc1 [RASPBERRYKETONE] | – | – | – | 4000 |
| COc1cc(CCC(C)=O)ccc1O [ZINGERONE] | – | 153 | 151 | – |
